Test results taken from patent US20220062291A1, “COMPOSITIONS AND METHODS OF TREATING CANCERS BY ADMINISTERING A PHENOTHIAZINE-RELATED DRUG THAT ACTIVATES PROTEIN PHOSPHATASE 2A (PP2A) WITH REDUCED INHIBITORY ACTIVITY TARGETED TO THE DOPAMINE D2 RECEPTOR AND ACCOMPANYING TOXICITY” (DANA-FARBER CANCER INSTITUTE, INC., priority 2018, published 2022).

Experiments:
KOPT-K1 cells = test: KOPT-K1 cell viability (PrestoBlue), IC50 after 72 hours; assay type: cell-based, human
Method: For IC50 calculation, KOPT-K1 cells were treated with each of the compounds at various concentrations for 72 hours, followed by the determination of viable cell numbers with PrestoBlue® cell viability reagent. For the PP2A phosphatase activity assay, KOPT-K1 cells were treated with each of the compounds at 10 μM for 3 hours before phosphatase activity was measured. Dopamine D2 receptor activity was monitored in HEK293T cells coexpressing the dopamine D2 receptor, modified G protein and SRE luciferase reporter. Cells were treated with each of the compound at 10 μM for 3 hours, then lysed for the luciferase reporter assay.
For IC50 calculations, KOPT-K1 cells were treated with each of the compound at various concentrations for 72 hours, then their viability was examined by PrestoBlue® Cell Viability Reagent (Thermo Fisher Scientific). For PP2A phosphatase activity assay, KOPT-K1 cells were treated with each of the compound at 10 μM for three hours before the activity of PP2A was quantified using PP2A Immunoprecipitation Phosphatase Assay Kit (Merck Millipore®). DRD2 activity was monitored in HEK293T cells expressing DRD2, modified G protein and SRE luciferase reporter. Cells were treated with each of the compounds at 10 μM for three hours, then lysed for luciferase reporter assay. […] The biochemical assays were performed as indicated in Examples 7 and 8.

[1] = test system: PLK1, PLK4, AURKA, KIF11, SASS6, RCC1, HAUS8, TPX2, PCNT, CENPJ and TUBG1 in KOPT-K1 cells; test: Relative mRNA expression of spindle monopolarity genes; assay type: cell-based, human; conditions: 1 μM, 6 hours
Method: The relative mRNA expression of genes whose inducible CRISPR-cas9 knockout causes cell cycle arrest in prometaphase yielding spindle monopolarity (PLK1, PLK4, AURKA, KIF11, SASS6, RCC1, HAUS8, TPX2, PCNT, CENPJ and TUBG1) (McKinley et al., Dev. Cell 40:405-420 (2017)) was evaluated in […] cell lines. […] The results are illustrated in FIG. 33.

[2] = test system: 274 cancer cell lines from 39 distinct types of human cancers; test: PRISM analysis of cell viability; assay type: cell-based; conditions: 5 μM, 5 days
Method: Many other human cell lines from hematologic malignancies and solid tumors were as sensitive as the most sensitive T-ALL cell lines to treatment with iPAP1. Cell lines with a relative viability below the dashed line at 0.5 have an IC50 value for iPAP1 below 5 μM.

[3] = Peripheral blood platelet counts; assay type: in vivo, C57BL/6J mice; conditions: 80 mg/kg/day intraperitoneally, seven consecutive days
Method: The peripheral blood platelet counts in C57BL/6J mice treated with either by DMSO or iPAP1 at 80 mg/kg/day intraperitoneally for seven consecutive days, were measured. […] Other blood cell counts were unchanged in treated compared to control mice. iPAP1 treatment of mice increased the platelet count, due to effects of the compound on endoreduplication of megakaryocytes.

[4] = biological target: tubulin from porcine brain (Sus scrofa, UniProt P02550+P02554); test: Fluorescence-based tubulin polymerization assay; conditions: concentrations of up to 2.5 or 5 μM
Chain of tubulin from porcine brain (P02550 whole entry): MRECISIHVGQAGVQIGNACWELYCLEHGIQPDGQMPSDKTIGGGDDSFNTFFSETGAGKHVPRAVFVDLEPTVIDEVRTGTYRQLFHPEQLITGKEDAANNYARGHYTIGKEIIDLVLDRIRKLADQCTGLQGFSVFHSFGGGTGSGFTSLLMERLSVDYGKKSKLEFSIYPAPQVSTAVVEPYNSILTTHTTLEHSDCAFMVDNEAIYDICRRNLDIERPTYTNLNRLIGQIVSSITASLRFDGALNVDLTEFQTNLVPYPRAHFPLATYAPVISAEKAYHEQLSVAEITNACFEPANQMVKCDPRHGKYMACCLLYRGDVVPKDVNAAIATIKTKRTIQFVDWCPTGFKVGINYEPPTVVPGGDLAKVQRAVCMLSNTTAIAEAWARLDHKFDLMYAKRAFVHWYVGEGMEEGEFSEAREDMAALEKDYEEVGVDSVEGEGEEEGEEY
Chain of tubulin from porcine brain (P02554 whole entry): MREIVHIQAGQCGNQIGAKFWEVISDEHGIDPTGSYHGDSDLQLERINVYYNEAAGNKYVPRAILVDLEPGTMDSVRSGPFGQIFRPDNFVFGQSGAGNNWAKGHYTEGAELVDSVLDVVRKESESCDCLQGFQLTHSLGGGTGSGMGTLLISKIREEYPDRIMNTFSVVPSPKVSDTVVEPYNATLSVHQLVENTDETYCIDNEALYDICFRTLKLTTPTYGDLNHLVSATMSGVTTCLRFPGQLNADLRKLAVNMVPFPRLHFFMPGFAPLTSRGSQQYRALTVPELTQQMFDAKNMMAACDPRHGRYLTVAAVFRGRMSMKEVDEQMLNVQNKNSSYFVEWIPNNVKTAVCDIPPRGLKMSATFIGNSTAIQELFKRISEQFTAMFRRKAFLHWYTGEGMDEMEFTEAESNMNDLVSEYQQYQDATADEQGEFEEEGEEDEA
Method: Briefly, free tubulin (2 mg/mL) in buffer supplemented with 1 mM GTP and 15% glycerol was employed. Then, the test compounds were added to tubulin solution and changes in the fluorescence intensity (ex=370 nm, em=445 nm) were measured by kinetic reading at 37° C. using SpectraMax® M5 Microplate reader (Molecular Devices LLC).

COc1ccc(C(=O)N2c3ccccc3Sc3ccc(Cl)cc32)cc1 [iPAP1]
IC50 (KOPT-K1 cells; Homo sapiens, KOPTK1, 72 h, 72 hours, PrestoBlue, read-out: IC50 value against KOPT-K1 cells): ~400 nM | more active than PPZ for mediating T-ALL cell killing (KOPT-K1 cells; KOPT-K1, 72 hours): 10 times | relative mRNA expression [1]: significantly down-regulated the expression levels of most of these genes | cell killing compared with PPZ in every cell line [2]: more active in cell killing than was PPZ | other blood cell counts [3]: unchanged | peripheral blood platelet counts [3]: significantly increased the platelet counts | inhibition of tubulin polymerization [4]: inhibition of tubulin polymerization was not detected
